# Test results from patent US7723468B2, “Antimicrobial peptide, compositions, and uses therefor” (De Sao Paulo Universida de, priority 2000, dated 2010).
# Bridges are numbered along the chain shown (N, C = ends).
# Key:
# Assay type in all cases: cell-based
# [1] = test system: bacteria, fungi and yeast; experiment: Liquid growth inhibition assay, MIC activity spectrum (FIG. 1)
# Protocol: The active fraction against the tested bacterium Micrococcus luteus of hemocytes (AGH2) is additionally purified by filtration chromatography. Elution is made under isocratic conditions with 30% acetonitrile in acidic water at a flow rate of 0.4 ml/min. HPLC (high performance liquid chromatography) purification was made at room temperature. The effluent column was monitored for its absorbance at 225 nm. Fractions corresponding to absorbance peaks were collected, concentrated under vacuum and reconstituted in MilliQ water. Anti-bacterial activity of the collected fractions was monitored by a liquid growth inhibition assay according to J. Biol. Chem., 268, 14893-14897 (1993), using Micrococcus luteus as the test microorganism.
# (§1) The evaluation of activity against bacteria and fungi was done as described in J. Biol. Chem., 271, 29537-29544 (1996).
# On FIG. 1, n.d. means “non-detected” for the tested concentration range of up to 100 μM for gomesin, while n.m. means not measured. The minimal inhibitory concentrations (MICs) of synthetic peptides are expressed as the [A]-[B] interval of concentrations, where [A] is the highest concentration tested at which the microorganisms are growing and [B] is the lowest concentration that causes 100% growth inhibition. […]
# [2] = test system: Leishmania (leishmania) amazonensis (MRPO/BR/72/M 1841-LV-79); experiment: Anti-parasitic activity, MTT cell viability test (FIG. 4); settings: incubation one hour at 22° C., 0.1 to 100 μM
# Protocol: (§2) As an example of anti-parasitic activity, the cell viability of Leishmania (leishmania) amazonensis (MRPO/BR/72/M 1841-LV-79) and Trypanosoma cruzi were evaluated, by making use of the MTT [3-(4,5-dimethyltiazolyl-2)-2,5-diphenyl tetrazolio bromide] test as described in J. Immunol. Methods 65, 55-63 (1983) and adapted for Leishmania spp, according to J. Immunol. Methods 127, 11-18 (1990).
# (§3) Quantities from 0.1 to 100 μM were tested against Leishmania (leishmania) amazonensis and Trypanosoma cruzi. […] The death of parasites (%) was measured by making use of the MTT assay as described in J. Immunol. Methods 65, 55-63 (1983) and adapted for Leishmania spp, according to J. Immunol. Methods 127, 11-18 (1990).
# [3] = test system: Trypanosoma cruzi; experiment: as above; settings: incubation one hour at 22° C., 0.1 to 100 μM
# Protocol: as §2, §3
# [4] = test system: Gram-positive and Gram-negative bacteria and yeast; experiment: Antimicrobial activity of head-to-tail cyclic gomesin, same growth inhibition assay (FIG. 3); settings: tested Gram-positive and Gram-negative bacteria and yeast
# Protocol: as §1
# On FIG. 1, n.d. means “non-detected” for the tested concentration range of up to 100 μM for gomesin, while n.m. means not measured. The minimal inhibitory concentrations (MICs) of synthetic peptides are expressed as the [A]-[B] interval of concentrations, where [A] is the highest concentration tested at which the microorganisms are growing and [B] is the lowest concentration that causes 100% growth inhibition.
# The antimicrobial activity of the head-to-tail cyclic gomesin peptide (SEQ ID No 3) was evaluated using the same assay described above.
Substance,MIC (minimum inhibitory concentration) ([1]; for half of the 24 susceptible strains),"strains susceptible to gomesin ([1]; out of the 27 strains tested, concentration range up to 100 μM)","viability of parasites (death of parasites, %) [2]","viability of parasites (death of parasites, %) [3]",antimicrobial activity compared with native gomesin [4]
ZCRRLCYKQRCVTYCRGRa [gomesin],≤ 1.6 µM,24 strains,dependent on the concentration of gomesin,dependent on the concentration of gomesin,–
"QCRRLCYKQRCVTYCRGR (cyclo(QCRRLCYKQRCVTYCRGR); disulfide 6-11, 2-15; SMILES CC(C)C[C@@H]1NC(=O)[C@H](CCCNC(=N)N)NC(=O)[C@H](CCCNC(=N)N)NC(=O)[C@@H]2CSSC[C@H](NC(=O)[C@H](Cc3ccc(O)cc3)NC(=O)[C@H]([C@@H](C)O)NC(=O)[C@H](C(C)C)NC(=O)[C@@H]3CSSC[C@H](NC1=O)C(=O)N[C@@H](Cc1ccc(O)cc1)C(=O)N[C@@H](CCCCN)C(=O)N[C@@H](CCC(N)=O)C(=O)N[C@@H](CCCNC(=N)N)C(=O)N3)C(=O)N[C@@H](CCCNC(=N)N)C(=O)NCC(=O)N[C@@H](CCCNC(=N)N)C(=O)N[C@@H](CCC(N)=O)C(=O)N2) [head-to-tail cyclic gomesin, gomesin with closed ends]",–,–,–,–,identical to the activity of native gomesin
